Active and inactive are the calls of the source. No cut-off for these calls is given here.
Assays:
[1] = test system: Human immunodeficiency virus 1; experiment: Reactivation of latent HIV1 LTR-GFP infected in human Jurkat-Lat A10.6 cells assessed as increase in GFP-positive cells after 24 hrs by flow cytometry relative to control; format: functional
[2] = Cytotoxicity against human J-Lat cells; format: cell-based
[3] = Cytotoxicity against human J-Lat cells at 100 uM; format: cell-based
PBMC = experiment: Cytotoxicity against PBMC (unknown origin) assessed as reduction in cell viability up to 500 uM by CCK8 assay; format: cell-based
T cell [4] = experiment: Induction of monkey PBMC CD3+ T cells activation assessed as increase in CCR5 expression up to 500 uM after 24 hrs by flow cytometry; format: cell-based, Macaca mulatta; details: rhesus monkey
T cell [5] = experiment: Induction of monkey PBMC CD4+ T cells activation assessed as increase in CD25 expression up to 500 uM after 24 hrs by flow cytometry; format: cell-based, Macaca mulatta; details: rhesus monkey
[6] = test system: Human immunodeficiency virus 1; experiment: Reactivation of latent HIV1 LTR-GFP infected in human Jurkat-Lat A10.6 cells assessed as GFP-positive cells at 100 uM after 24 hrs by flow cytometry (reference value: 5.06%); format: functional
[7] = test system: Human immunodeficiency virus; experiment: Reactivation of HIV latent provirus in primary CD4+ T lymphocytes isolated from infected human PBMC assessed as increase in msRNA level at 10 to 100 uM after 24 hrs by RT-PCR analysis; format: functional, organism-based
T cell [8] = experiment: Induction of monkey PBMC CD4+ T cells activation assessed as increase in CD69 expression up to 500 uM after 24 hrs by flow cytometry; format: cell-based, Macaca mulatta; details: rhesus monkey
[9] = test system: Human immunodeficiency virus 1; experiment: Reactivation of latent HIV1 LTR-GFP infected in human Jurkat-Lat A10.6 cells assessed as GFP-positive cells at 10 uM after 24 hrs by flow cytometry (reference value: 5.06%); format: functional
[10] = test system: Human immunodeficiency virus; experiment: Reactivation of HIV latent provirus in primary CD4+ T lymphocytes isolated from infected human PBMC assessed as increase in usRNA level at 10 to 100 uM after 24 hrs by RT-PCR analysis; format: functional, organism-based
[11] = test system: Simian immunodeficiency virus; experiment: Reactivation of Simian immunodeficiency virus mac239 latent provirus in primary CD4+ T lymphocytes isolated from infected rhesus monkey PBMC assessed as increase in msRNA level after 24 hrs by RT-PCR analysis; format: functional, organism-based
T cell [12] = experiment: Induction of monkey PBMC CD3+ T cells activation assessed as increase in CD69 expression up to 500 uM after 24 hrs by flow cytometry; format: cell-based, Macaca mulatta; details: rhesus monkey
[13] = test system: Simian immunodeficiency virus; experiment: Reactivation of Simian immunodeficiency virus mac239 latent provirus in primary CD4+ T lymphocytes isolated from infected rhesus monkey PBMC assessed as increase in usRNA level after 24 hrs by RT-PCR analysis; format: functional, organism-based
T cell [14] = experiment: Induction of monkey PBMC CD3+ T cells activation assessed as increase in CD25 expression up to 500 uM after 24 hrs by flow cytometry; format: cell-based, Macaca mulatta; details: rhesus monkey
T cell [15] = experiment: Induction of monkey PBMC CD4+ T cells activation assessed as increase in CCR5 expression up to 500 uM after 24 hrs by flow cytometry; format: cell-based, Macaca mulatta; details: rhesus monkey
[16] = test system: Human immunodeficiency virus; experiment: Reactivation of HIV latent provirus in primary CD4+ T lymphocytes isolated from infected human PBMC assessed as increase in msRNA level after 24 hrs by RT-PCR analysis; format: functional, organism-based
[17] = test system: Human immunodeficiency virus; experiment: Reactivation of HIV latent provirus in primary CD4+ T lymphocytes isolated from infected human PBMC assessed as increase in usRNA level after 24 hrs by RT-PCR analysis; format: functional, organism-based
[18] = test system: Human immunodeficiency virus 1; experiment: Reactivation of latent HIV1 LTR-GFP infected in human Jurkat-Lat A10.6 cells assessed as GFP-positive cells after 24 hrs by flow cytometry (reference value: 5.06%); format: functional

SMILES: CC(C)(C)OC(=O)n1c2c(c3ccccc31)C(C(F)(F)F)C(C#N)=C(N)O2 (configuration not stated)
- fold change (FC) [1]: 0.25
- fold change (FC) [2]: 3

SMILES: CCOC(=O)C1(C(F)(F)F)C(C#N)=C(N)Oc2[nH]c3ccccc3c21 (configuration not stated)
- fold change (FC) [1]: 2
- Activity [3]: Toxic

SMILES: CCOC(=O)C1(C(F)(F)F)C(C#N)=C(N)Oc2c1c1ccccc1n2C(=O)OC(C)(C)C (racemic)
- fold change (FC) [1]: 2.6
- fold change (FC) [2]: 1.8

SMILES: CCOC(=O)C1(C(F)(F)F)C(C#N)=C(N)Oc2c1c1ccccc1n2C (configuration not stated)
- Activity (PBMC): Non-Toxic
- Activity (T cell [4]): Non-Toxic
- Activity (T cell [5]): Non-Toxic
- fold change (FC) [1]: 4.4
- Activity [6]: 23%
- Activity [7]: Active
- Activity (T cell [8]): Non-Toxic
- Activity [9]: 9.16%
- Activity [10]: Active
- fold change (FC) [2]: 1.3
- Activity [11]: Dose-dependent effect
- Activity (T cell [12]): Non-Toxic
- Activity [13]: Dose-dependent effect
- Activity (T cell [14]): Non-Toxic
- Activity (T cell [15]): Non-Toxic

SMILES: CCCC(CCC)C(=O)O [VALPROIC ACID]
- Activity [16]: inactive
- Activity [17]: inactive
- Activity [18]: 25.7%
- Activity [11]: inactive
- Activity [13]: inactive

SMILES: CCOC(=O)C1(C(F)(F)F)C(C#N)=C(N)Oc2c1c1ccccc1n2Cc1ccccc1 (configuration not stated)
- fold change (FC) [1]: 1.9
- Activity [3]: Toxic

SMILES: CCOC(=O)[C@@]1(C(F)(F)F)C(C#N)=C(N)Oc2c1c1ccccc1n2C(=O)OC(C)(C)C
- fold change (FC) [1]: 1.5
- Activity [3]: Toxic

SMILES: COC(=O)C1(C(F)(F)F)C(C#N)=C(N)Oc2c1c1ccccc1n2C(=O)OC(C)(C)C (configuration not stated)
- fold change (FC) [1]: 2.1
- fold change (FC) [2]: 2.6

From ChEMBL document CHEMBL4261560, “Structure-optimized dihydropyranoindole derivative GIBH-LRA002 potentially reactivated viral latency in primary CD4+ T lymphocytes of chronic HIV-1 patients” (Medchemcomm, 2017)
